One compound from patent US10946109B2, “Polymer-type fluorescent molecule probe” (HIROSHI MAEDA, priority 2011, dated 2021) can be followed below.

For the test, the system named is Human pancreatic cancer cells PC1.0. Briefly: cells. To be noted: light or radiation study.

Each structure is given as a SMILES string.

Broadly, the IC50 is the concentration that gives 50% inhibition. Higher therefore signals weaker potency in that assay.

Description: Human pancreatic cancer cells PC1.0 were plated in 96 well culture plate at 1000 cells/well and cultured overnight. Then, methylene blue (MB) or SMA-methylene blue (SMA-MB) micelle was added to the cultured cells above, and allowed to culture another 48 hours. Light irradiation was carried out using tungsten xenon lamp at 15 cm distance from the cell surface for 20 min. Then, the survival rate of the cells was quantified by MTT Method.

As for `CN(C)c1ccc2nc3ccc(=[N+](C)C)cc-3sc2c1` [Methylene blue, methylene blue], the IC50 worked out at 500 nM. This compound also returned a half-maximal inhibitory concentration (IC50) (48 h) of 4500 nM.
